According to BindingDB's records for PubMed 10411589 (The University of Queensland, 1999):

What was measured:
[1] = target: Sodium-dependent noradrenaline transporter (Homo sapiens, UniProt P23975)
[2] = target: Sodium-dependent noradrenaline transporter (Bos taurus, UniProt P51143)
[3] = target: Norepinephrine transporter (Rattus norvegicus, UniProt Q9JIA2)

Chain of Sodium-dependent noradrenaline transporter (Bos taurus, UniProt P51143) (P51143 whole entry): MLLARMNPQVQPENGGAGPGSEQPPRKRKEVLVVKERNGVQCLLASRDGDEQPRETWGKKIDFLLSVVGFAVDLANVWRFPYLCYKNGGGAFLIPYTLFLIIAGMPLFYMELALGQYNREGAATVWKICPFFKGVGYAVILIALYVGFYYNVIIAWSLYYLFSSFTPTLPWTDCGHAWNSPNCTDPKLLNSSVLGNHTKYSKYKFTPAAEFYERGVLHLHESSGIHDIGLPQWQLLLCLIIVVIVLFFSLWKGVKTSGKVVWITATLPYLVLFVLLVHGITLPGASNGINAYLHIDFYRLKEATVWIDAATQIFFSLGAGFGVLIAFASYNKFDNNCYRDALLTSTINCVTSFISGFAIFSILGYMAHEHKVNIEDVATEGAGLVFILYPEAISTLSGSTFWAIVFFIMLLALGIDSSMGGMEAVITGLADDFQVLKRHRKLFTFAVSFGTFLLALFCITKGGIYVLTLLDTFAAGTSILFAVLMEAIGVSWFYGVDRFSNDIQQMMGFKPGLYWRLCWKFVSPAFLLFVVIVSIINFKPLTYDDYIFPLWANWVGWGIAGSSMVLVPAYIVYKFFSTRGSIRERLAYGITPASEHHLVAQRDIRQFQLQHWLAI
Chain of Sodium-dependent noradrenaline transporter (Homo sapiens, UniProt P23975) (P23975 whole entry): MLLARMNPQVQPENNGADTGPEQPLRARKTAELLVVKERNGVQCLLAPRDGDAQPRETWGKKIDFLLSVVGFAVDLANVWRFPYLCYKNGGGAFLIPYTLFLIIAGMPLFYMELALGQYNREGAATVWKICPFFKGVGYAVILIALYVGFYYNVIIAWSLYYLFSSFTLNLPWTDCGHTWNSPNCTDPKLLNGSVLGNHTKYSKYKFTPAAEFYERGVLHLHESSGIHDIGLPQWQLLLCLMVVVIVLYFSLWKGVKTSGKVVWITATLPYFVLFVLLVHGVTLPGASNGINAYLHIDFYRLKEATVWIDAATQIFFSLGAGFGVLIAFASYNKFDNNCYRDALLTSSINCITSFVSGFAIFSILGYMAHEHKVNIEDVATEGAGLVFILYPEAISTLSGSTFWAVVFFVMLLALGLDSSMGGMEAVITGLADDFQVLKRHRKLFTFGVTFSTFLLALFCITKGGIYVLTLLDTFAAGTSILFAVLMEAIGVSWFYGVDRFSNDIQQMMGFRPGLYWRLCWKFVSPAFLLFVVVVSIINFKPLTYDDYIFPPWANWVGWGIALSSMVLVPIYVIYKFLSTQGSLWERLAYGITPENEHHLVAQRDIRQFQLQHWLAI

Row | SMILES | Ki [1] [nM] | Ki [2] [nM] | Ki [3] [nM]
1 | CNCC(O)c1ccc(O)c(O)c1 (stereo not given) [EPINEPHRINE] | 3680 | 5000 | 6500
2 | CN(C)CCCN1c2ccccc2CCc2ccccc21 |  | 93.6 | 
3 | CNCCC(Oc1ccccc1OC)c1ccccc1 (stereo not given) [3-(2-methoxyphenoxy)-N-methyl-3-phenylpropan-1-amine] |  |  | 5.74
4 | NCCc1ccc(O)c(O)c1 |  | 397 | 392
5 | C[n+]1ccc(-c2ccccc2)cc1 [NSC_39484] | 507 | 570 | 778
